SMILES strings stand for the structures. Values joined by “and” are separate entries in the source; they are usually repeats but may differ in a detail not shown here. Equal values may be shown once. Toxic doses and inconclusive results are not listed.

The subject of the experiment is P388 leukemia ip, CD2F1 mice, survival T/C. Put plainly: NCI In Vivo Anticancer Drug Screen. Data for tumor model P388 Leukemia (intraperitoneal) in CD2F1 (CDF1) mice. The following applies: endpoint: median survival time, higher = longer survival. In outline: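 Mice carrying the transplanted tumor received test compound or vehicle. Survival was recorded in each group, and the value is the treated-group measurement divided by that of the vehicle-treated control group.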

Setting [1] is: dose: 50.0 mg/kg/injection, schedule: Q01DX005 (ip), vehicle: saline with Tween-80.
[2] abbreviates: dose: 100.0 mg/kg/injection, schedule: Q01DX005 (ip), vehicle: saline with Tween-80.
Setting [3] is: dose: 200.0 mg/kg/injection, schedule: Q01DX005 (ip), vehicle: saline with Tween-80.
[4] abbreviates: dose: 60.0 mg/kg/injection, schedule: Q01DX005 (ip), vehicle: Klucel (hydroxypropylcellulose) (HPC).
Where [5] appears, read: dose: 120.0 mg/kg/injection, schedule: Q01DX005 (ip), vehicle: Klucel (hydroxypropylcellulose) (HPC).
Setting [6] is: dose: 240.0 mg/kg/injection, schedule: Q01DX005 (ip), vehicle: Klucel (hydroxypropylcellulose) (HPC).
[7] abbreviates: dose: 60.0 mg/kg/injection, schedule: Q01DX005 (ip), vehicle: saline with Tween-80.
Where [8] appears, read: dose: 120.0 mg/kg/injection, schedule: Q01DX005 (ip), vehicle: saline with Tween-80.
Where [9] appears, read: dose: 240.0 mg/kg/injection, schedule: Q01DX005 (ip), vehicle: saline with Tween-80.
Setting [10] is: dose: 50.0 mg/kg/injection, schedule: Q01DX009 (ip), vehicle: saline with Tween-80.
Setting [11] is: dose: 50.0 mg/kg/injection, schedule: Q01DX009 (ip), vehicle: saline.
Where [12] appears, read: dose: 100.0 mg/kg/injection, schedule: Q01DX009 (ip), vehicle: saline.
[13] abbreviates: dose: 200.0 mg/kg/injection, schedule: Q01DX009 (ip), vehicle: saline.
The mark [14] stands for this setting: dose: 50.0 mg/kg/injection, schedule: Q01DX005 (ip), vehicle: Klucel (hydroxypropylcellulose) (HPC).
The mark [15] stands for this setting: dose: 100.0 mg/kg/injection, schedule: Q01DX005 (ip), vehicle: Klucel (hydroxypropylcellulose) (HPC).

`CC(Oc1ccc(Cl)cc1Cl)C(=O)NC(Cc1ccccc1)C(=O)O` (stereo not drawn): the T/C was 102 % of control under setting [1], 110 % of control under setting [2] and 102 % of control under setting [3].

Turning to `COc1ccc2nc(C#N)ccc2c1`, the T/C is 92 % of control under setting [1], 90 % of control under setting [2] and 95 % of control under setting [3].

As to `O=C1COc2ccc(F)cc2N1`, the T/C is, setting by setting: under setting [4], 102 % of control and 103 % of control; under setting [5], 101 % of control and 96 % of control; under setting [6], 101 % of control and 102 % of control.

Turning to `COc1ccc(/C=N/N2CN(C(C)C(=O)O)B(NC34CC5CC(CC(C5)C3)C4)N=C2N)cc1OC` (stereo not drawn), the T/C is, setting by setting: under setting [7], 104 % of control; under setting [8], 99 % of control; under setting [9], 93 % of control.

In the case of `O=C(/C=C/C(=O)Oc1cc(Cl)c(Cl)cc1Cl)Oc1cc(Cl)c(Cl)cc1Cl`, the T/C (dose: 100.0 mg/kg/injection, schedule: Q04DX003 (ip), vehicle: saline with Tween-80) was 96 % of control; the T/C (dose: 200.0 mg/kg/injection, schedule: Q04DX003 (ip), vehicle: saline with Tween-80) is 88 % of control; the T/C (dose: 400.0 mg/kg/injection, schedule: Q04DX003 (ip), vehicle: saline with Tween-80) is 97 % of control.

Take `COC(=O)C(C)CC(C)(CC(C)(CC(C)(C)C(=O)OC)C(=O)OC)C(=O)OC` (stereo not drawn) (tested in a mixture with another compound): the T/C was 100 % of control under setting [7], 96 % of control under setting [8] and 100 % of control under setting [9].

Consider `COC1=CC(=[O+]C)/C(=C/c2c(OC)cc(OC)cc2OC)C(OC)=C1`, for which the T/C is 94 % of control under setting [10]; 86 % of control (dose: 100.0 mg/kg/injection, schedule: Q01DX009 (ip), vehicle: saline with Tween-80); 86 % of control (dose: 200.0 mg/kg/injection, schedule: Q01DX009 (ip), vehicle: saline with Tween-80).

For the molecule `C=CCCN=C(SC)SC`, the T/C under setting [7] is 104 % of control and the T/C under setting [8] is 114 % of control.

Consider `CC1(C)OC2OC(C3COS(=O)O3)C(Cl)C2O1` (stereo not drawn), for which the T/C runs as follows: under setting [7], 107 % of control; under setting [8], 113 % of control; under setting [9], 114 % of control.

As for `C[C@@H]1CN1C1=CC(=O)C(N2C[C@H]2C)=CC1=O`, the T/C (dose: 0.31 mg/kg/injection, schedule: Q01DX009 (ip), vehicle: gum acacia) is 122 % of control; the T/C (dose: 1.25 mg/kg/injection, schedule: Q01DX009 (ip), vehicle: gum acacia) is 169 % of control; the T/C (dose: 2.5 mg/kg/injection, schedule: Q01DX009 (ip), vehicle: gum acacia) is 166 % of control and 169 % of control; the T/C (dose: 5.0 mg/kg/injection, schedule: Q01DX009 (ip), vehicle: gum acacia) was 169 % of control and 173 % of control; the T/C (dose: 37.0 micrograms/kg/injection, schedule: Q01DX009 (ip), vehicle: gum acacia) is 102 % of control; the T/C (dose: 75.0 micrograms/kg/injection, schedule: Q01DX009 (ip), vehicle: gum acacia) is 113 % of control. The T/C was 117 % of control (dose: 150.0 micrograms/kg/injection, schedule: Q01DX009 (ip), vehicle: gum acacia) and 111 % of control (dose: 310.0 micrograms/kg/injection, schedule: Q01DX009 (ip), vehicle: gum acacia).

For `CCCCCCC(/C=C/c1ccc(Cl)c(Cl)c1)=N\NC(=O)C(N)=O`, the T/C under setting [11] was 101 % of control, the T/C under setting [12] is 101 % of control and the T/C under setting [13] is 110 % of control.

As to `O=C(O)C1C(C(=O)O)C1c1ncnc2nc[nH]c12` (stereo not drawn), the T/C was 99 % of control and 100 % of control (dose: 25.0 mg/kg/injection, schedule: Q04DX003 (ip), vehicle: saline); 100 % of control and 101 % of control (dose: 50.0 mg/kg/injection, schedule: Q04DX003 (ip), vehicle: saline); 98 % of control and 103 % of control and 100 % of control (dose: 100.0 mg/kg/injection, schedule: Q04DX003 (ip), vehicle: saline); 103 % of control and 104 % of control (dose: 200.0 mg/kg/injection, schedule: Q04DX003 (ip), vehicle: saline); 100 % of control and 99 % of control (dose: 400.0 mg/kg/injection, schedule: Q04DX003 (ip), vehicle: saline).

With `CC(C)(C)C(=O)Oc1cc2c(cc1OC(=O)C(C)(C)C)C(c1ccccc1)CNCC2` (stereo not drawn), the T/C is 96 % of control (dose: 25.0 mg/kg/injection, schedule: Q01DX009 (ip), vehicle: saline with Tween-80) and 98 % of control under setting [10].

For `CCCCCCCCCCCC[S][Sn]([CH2]CCC)([S]CCCCCCCCCCCC)[S]CCCCCCCCCCCC`, the T/C runs as follows: under setting [11], 87 % of control; under setting [12], 99 % of control; under setting [13], 95 % of control.

As to `CC1(C)OC2C(COC(=O)c3ccccc3)OC(n3cnc4c(=NC(=O)c5ccccc5)n(C(=O)c5ccccc5)cnc43)C2O1` (stereo not drawn), the T/C by setting is: under setting [14], 94 % of control; under setting [15], 94 % of control.

With `CN1CN(C)CN(Cc2ccc([N+](=O)[O-])cc2)C1`, the T/C by setting is: (dose: 25.0 mg/kg/injection, schedule: Q01DX005 (ip), vehicle: Klucel (hydroxypropylcellulose) (HPC)) 93 % of control; under setting [14], 97 % of control; under setting [15], 94 % of control; (dose: 200.0 mg/kg/injection, schedule: Q01DX005 (ip), vehicle: Klucel (hydroxypropylcellulose) (HPC)) 91 % of control.

Consider `COc1cc2c(c(OC)c1OC)-c1ccc(OC)c(=O)cc1[C@@H](NC(=O)CF)CC2`, for which the T/C is 121 % of control (dose: 23.4 micrograms/kg/injection, schedule: Q01DX009 (ip), vehicle: saline); 152 % of control (dose: 93.7 micrograms/kg/injection, schedule: Q01DX009 (ip), vehicle: saline); 152 % of control (dose: 187.5 micrograms/kg/injection, schedule: Q01DX009 (ip), vehicle: saline); 163 % of control (dose: 250.0 micrograms/kg/injection, schedule: Q04DX003 (ip), vehicle: saline); 161 % of control (dose: 375.0 micrograms/kg/injection, schedule: Q01DX009 (ip), vehicle: saline); 204 % of control (dose: 500.0 micrograms/kg/injection, schedule: Q04DX003 (ip), vehicle: saline). Under “dose: 2000.0 micrograms/kg/injection, schedule: Q04DX003 (ip), vehicle: saline”, the T/C was 122 % of control.

As to `CC(C)(C)COc1ccc2c(c1)C1=NC2=NC2=NC(=NC3=NC(=NC4=NC(=N1)c1ccc(OCC(C)(C)C)cc14)c1ccc(OCC(C)(C)C)cc13)c1ccc(OCC(C)(C)C)cc12`, the T/C reads like this: under setting [4], 99 % of control; under setting [5], 88 % of control; under setting [6], 89 % of control.

As to `CC(CC(C)C)=NC(C)CC(C)C` (stereo not drawn), the T/C (dose: 50.0 mg/kg/injection, schedule: Q01DX005 (ip), vehicle: saline) is 97 % of control and the T/C (dose: 100.0 mg/kg/injection, schedule: Q01DX005 (ip), vehicle: saline) is 95 % of control.

`NC(CSC1c2ccccc2-c2ccccc21)C(=O)O` (stereo not drawn): the T/C is, setting by setting: under setting [7], 90 % of control; under setting [8], 98 % of control; under setting [9], 92 % of control.

For the molecule `O/N=C(/CC(c1ccccc1)N1CCOCC1)c1ccccc1` (stereo not drawn), the T/C by setting is: under setting [14], 93 % of control; under setting [15], 90 % of control.

Regarding `CCCCCCCCCSc1nc2ccc(N=Cc3ccccc3O)cc2s1`, the T/C (dose: 12.5 mg/kg/injection, schedule: Q01DX009 (ip), vehicle: Klucel (hydroxypropylcellulose) (HPC)) is 100 % of control; the T/C (dose: 25.0 mg/kg/injection, schedule: Q01DX009 (ip), vehicle: Klucel (hydroxypropylcellulose) (HPC)) is 100 % of control; the T/C (dose: 50.0 mg/kg/injection, schedule: Q01DX009 (ip), vehicle: Klucel (hydroxypropylcellulose) (HPC)) is 91 % of control and 92 % of control; the T/C (dose: 200.0 mg/kg/injection, schedule: Q01DX009 (ip), vehicle: Klucel (hydroxypropylcellulose) (HPC)) is 90 % of control.

`c1ccc(-c2nc3ccccc3nc2-c2ccc(-c3nc4ccccc4nc3-c3ccccc3)cc2)cc1`: the T/C runs as follows: (dose: 6.25 mg/kg/injection, schedule: Q01DX009 (ip), vehicle: saline with Tween-80) 112 % of control; (dose: 12.5 mg/kg/injection, schedule: Q01DX009 (ip), vehicle: saline with Tween-80) 90 % of control.

`CCCCCCCCCCN1CCC(N2CCCCC2)CC1`: the T/C (dose: 12.5 mg/kg/injection, schedule: Q01DX009 (ip), vehicle: saline) was 98 % of control; the T/C (dose: 25.0 mg/kg/injection, schedule: Q01DX009 (ip), vehicle: saline) is 100 % of control; the T/C under setting [11] is 99 % of control; the T/C under setting [12] is 93 % of control.

In the case of `CNC(=O)c1c(-c2ccc(F)cc2)noc1C`, the T/C reads like this: under setting [7], 103 % of control; under setting [8], 100 % of control; under setting [9], 103 % of control.
